One experiment deals with THP-1 cells. Description: LPS-stimulation of THP-1 cells, TNF-α release. Type of experiment: cell-based. The conditions noted are these: Homo sapiens, LPS 1 μg/ml, 6 h, TNF-α by ELISA, IC50 range, read-out: Inhibitor activity versus THP-1 TNFα release. The method, then: (C) LPS-Stimulation of THP-1 Cells
THP-1 cells are plated in 100 μl at a density of 4×10^4 cells/well in V-bottomed 96 well tissue culture treated plates and incubated at 37° C. in 5% CO2 for 16 h. 2 h after the addition of the inhibitor in 100 μl of tissue culture media, the cells are stimulated with LPS (E. coli strain 005:B5, Sigma) at a final concentration of 1 μg/ml and incubated at 37° C. in 5% CO2 for 6 h. TNF-α levels are measured from cell-free supernatants by sandwich ELISA (R&D Systems #QTA00B)
(§1) For each of the assays (B), (C) and (D) above, IC50 values are allocated to one of three ranges as follows: […]
(An ELISA detects its analyte on a solid surface through an enzyme-linked reagent.)

The next experiment deals with PI3Kγ (human) (Homo sapiens, UniProt P48736). Put plainly: Inhibition of PI3 kinase γ activity (HTRF). The format is biochemical. The conditions noted are these: ATP at or close to Km, IC50 range, read-out: Inhibitor activity versus PI3 Kinase γ. As for the experimental part: (B) Inhibition of PI3 Kinase V Activity
Sequence of PI3Kγ (human) (P48736 whole entry, the tested form may be a part): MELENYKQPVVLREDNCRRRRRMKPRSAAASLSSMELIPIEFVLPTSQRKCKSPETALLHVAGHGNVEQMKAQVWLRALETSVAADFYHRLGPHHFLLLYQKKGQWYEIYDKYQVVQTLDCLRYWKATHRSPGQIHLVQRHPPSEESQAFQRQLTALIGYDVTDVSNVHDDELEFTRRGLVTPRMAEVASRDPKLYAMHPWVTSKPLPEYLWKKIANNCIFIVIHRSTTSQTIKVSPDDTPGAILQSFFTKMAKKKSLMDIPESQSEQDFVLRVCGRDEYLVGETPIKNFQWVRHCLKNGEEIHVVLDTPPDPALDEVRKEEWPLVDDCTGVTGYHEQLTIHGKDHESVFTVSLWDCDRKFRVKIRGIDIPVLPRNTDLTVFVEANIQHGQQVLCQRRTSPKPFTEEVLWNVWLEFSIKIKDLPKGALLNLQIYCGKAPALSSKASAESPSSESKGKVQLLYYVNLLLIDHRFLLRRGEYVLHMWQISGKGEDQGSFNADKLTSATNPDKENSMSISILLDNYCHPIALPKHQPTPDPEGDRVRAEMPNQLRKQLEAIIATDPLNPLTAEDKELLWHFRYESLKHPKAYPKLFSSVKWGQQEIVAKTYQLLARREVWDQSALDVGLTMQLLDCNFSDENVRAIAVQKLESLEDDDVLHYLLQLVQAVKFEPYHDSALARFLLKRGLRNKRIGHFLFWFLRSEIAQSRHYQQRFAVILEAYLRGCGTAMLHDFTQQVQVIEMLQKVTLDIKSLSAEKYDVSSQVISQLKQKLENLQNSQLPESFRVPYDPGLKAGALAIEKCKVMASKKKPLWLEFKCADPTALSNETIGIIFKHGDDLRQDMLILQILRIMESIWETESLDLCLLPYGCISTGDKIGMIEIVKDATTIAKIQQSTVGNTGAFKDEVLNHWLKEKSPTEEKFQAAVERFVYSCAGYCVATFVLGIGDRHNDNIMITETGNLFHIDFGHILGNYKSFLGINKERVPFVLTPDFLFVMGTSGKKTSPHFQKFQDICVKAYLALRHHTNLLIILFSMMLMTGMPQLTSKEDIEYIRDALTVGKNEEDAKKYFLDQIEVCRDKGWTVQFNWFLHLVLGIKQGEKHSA
In a final reaction volume of 20 μl, PI3Kγ (human) is incubated in assay buffer containing 10 μM phosphatidylinositol-4,5-bisphosphate and MgATP (concentration as required). The reaction is initiated by the addition of the MgATP mix. After incubation for 30 minutes at room temperature, the reaction is stopped by the addition of 5 μl of stop solution containing EDTA and biotinylated phosphatidylinositol-3,4,5-trisphosphate. Finally, 5 μl of detection buffer is added, which contains europium-labelled anti-GST monoclonal antibody, GST-tagged GRP1 PH domain and streptavidin-allophycocyanin. The plate is then read in time-resolved fluorescence mode and the homogenous time-resolved fluorescence (HTRF) signal is determined according to the formula HTRF=10000×(Em665 nm/Em620 nm).
Duplicate data points are generated from a ⅓ log dilution series of a stock solution of compound in DMSO. Nine dilutions steps are made from a top concentration of 10 μM, and a ‘no compound’ blank is included. The HTRF PI 3-Kinase assay is performed at an ATP concentration at, or close to, the Km. HTRF ratio data is transformed into % activity of controls and analysed with a four parameter sigmoidal dose-response (variable slope) application. QC criteria is based on Top, Bottom, Hill slope, r^2 and IC50, the concentration giving 50% inhibition, which is reported.
as §1
(In general: In TR-FRET formats the signal depends on donor and acceptor labels being close together.)

Experimental findings from patent US20100010057A1, “THIAZOLE DERIVATIVES AS INHIBITORS OF P13 KINASE” (CHROMA THERAPEUTICS LTD., priority 2006, published 2010) are described below.

On to `Cc1nc(NC(=O)N[C@@H](COC(C)(C)C)C(=O)OC2CCCC2)sc1-c1ccc(Cl)c(S(C)(=O)=O)c1` [Example 4, Cyclopentyl O-tert-butyl-N-({5-[4-chloro-3-(methylsulfonyl)phenyl]-4-methyl-1,3-thiazol-2-yl}carbamoyl)-L-serinate], for which the IC50 with THP-1 cells was greater than 1 µM; on PI3Kγ (human), 0.1 to 1 µM.
As to `Cc1nc(NC(=O)CCCN[C@@H](CCC(=O)O)C(=O)OC2CCCC2)sc1-c1ccc(Cl)c(S(C)(=O)=O)c1` [Example 8, (4S)-4-{[4-({5-[4-Chloro-3-(methylsulfonyl)phenyl]-4-methyl-1,3-thiazol-2-yl}amino)-4-oxobutyl]amino}-5-(cyclopentyloxy)-5-oxopentanoic acid], the IC50 on PI3Kγ (human) was in the range of 0.1 to 1 µM.
Consider `Cc1nc(NC(=O)CCCN[C@@H](C(=O)OC2CCCC2)c2ccccc2)sc1-c1ccc(Cl)c(S(C)(=O)=O)c1` [Example 9, Cyclopentyl (2R)-{[4-({5-[4-chloro-3-(methylsulfonyl)phenyl]-4-methyl-1,3-thiazol-2-yl}amino)-4-oxobutyl]amino}(phenyl)acetate], for which the IC50 was greater than 1 µM with THP-1 cells and 0.1 to 1 µM at PI3Kγ (human).
Taken in the same sequence, the figures for `Cc1nc(NC(=O)CCCN[C@H](C(=O)OC2CCCC2)c2ccccc2)sc1-c1ccc(Cl)c(S(C)(=O)=O)c1` [Example 10, Cyclopentyl (2S)-{[4-({5-[4-chloro-3-(methylsulfonyl)phenyl]-4-methyl-1,3-thiazol-2-yl}amino)-4-oxobutyl]amino}(phenyl)acetate] were greater than 1 µM and 0.1 to 1 µM.
Consider `Cc1nc(NC(=O)CCCN[C@@H](Cc2ccccc2)C(=O)OC2CCCC2)sc1-c1ccc(Cl)c(S(C)(=O)=O)c1` [Example 11, Cyclopentyl N-[4-({5-[4-chloro-3-(methylsulfonyl)phenyl]-4-methyl-1,3-thiazol-2-yl}amino)-4-oxobutyl]-L-phenylalaninate], for which the IC50 with THP-1 cells and at PI3Kγ (human) was greater than 1 µM throughout.
For the compound `Cc1nc(NC(=O)CCCN[C@@H](COC(C)(C)C)C(=O)OC2CCCC2)sc1-c1ccc(Cl)c(S(C)(=O)=O)c1` [Example 12, Cyclopentyl O-tert-butyl-N-[4-({5-[4-chloro-3-(methylsulfonyl)phenyl]-4-methyl-1,3-thiazol-2-yl}amino)-4-oxobutyl]-L-serinate], the IC50 in the experiment on THP-1 cells and on PI3Kγ (human) was greater than 1 µM each time.
As to `Cc1nc(NC(=O)CCCN[C@H](C(=O)OC2CCCC2)C2CCCCC2)sc1-c1ccc(Cl)c(S(C)(=O)=O)c1` [Example 13, Cyclopentyl (2S)-{[4-({5-[4-chloro-3-(methylsulfonyl)phenyl]-4-methyl-1,3-thiazol-2-yl}amino)-4-oxobutyl]amino}(cyclohexyl)acetate], the IC50 with THP-1 cells and on PI3Kγ (human) was greater than 1 µM in each case.
Turning to `Cc1nc(NC(=O)CCCN[C@@H](CC(C)C)C(=O)OC(C)(C)C)sc1-c1ccc(Cl)c(S(C)(=O)=O)c1` [Example 14, tert-Butyl N-[4-({5-[4-chloro-3-(methylsulfonyl)phenyl]-4-methyl-1,3-thiazol-2-yl}amino)-4-oxobutyl]-L-leucinate], the IC50 with THP-1 cells and on PI3Kγ (human) was greater than 1 µM in each case.
Turning to `Cc1nc(NC(=O)CCCN[C@@H](COC(C)(C)C)C(=O)OC(C)(C)C)sc1-c1ccc(Cl)c(S(C)(=O)=O)c1` [Example 15, tert-Butyl O-tert-butyl-N-[4-({5-[4-chloro-3-(methylsulfonyl)phenyl]-4-methyl-1,3-thiazol-2-yl}amino)-4-oxobutyl]-L-serinate], the IC50 with THP-1 cells and at PI3Kγ (human) was greater than 1 µM in each case.
Take `Cc1nc(NC(=O)N[C@@H](COC(C)(C)C)C(=O)O)sc1-c1ccc(Cl)c(S(C)(=O)=O)c1` [Example 30, O-tert-Butyl-N-({5-[4-chloro-3-(methylsulfonyl)phenyl]-4-methyl-1,3-thiazol-2-yl}carbamoyl)-L-serine]: the IC50 on PI3Kγ (human) is greater than 1 µM.
As to `Cc1nc(NC(=O)N[C@@H](Cc2ccccc2)C(=O)O)sc1-c1ccc(Cl)c(S(C)(=O)=O)c1` [Example 31, N-({5-[4-Chloro-3-(methylsulfonyl)phenyl]-4-methyl-1,3-thiazol-2-yl}carbamoyl)-L-phenylalanine], the IC50 on PI3Kγ (human) was greater than 1 µM.
The same measure, in the same setting: next, `Cc1nc(NC(=O)CCCN[C@@H](CC(C)C)C(=O)O)sc1-c1ccc(Cl)c(S(C)(=O)=O)c1` [Example 32, N-4-({5-[4-Chloro-3-(methylsulfonyl)phenyl-4-methyl-1,3-thiazol-2-yl}amino)-4-oxobutyl]-L-leucine]: greater than 1 µM.
Consider `Cc1nc(NC(=O)CCCN[C@@H](CCC(=O)O)C(=O)O)sc1-c1ccc(Cl)c(S(C)(=O)=O)c1` [Example 33, N-[4-({5-[4-Chloro-3-(methylsulfonyl)phenyl]-4-methyl-1,3-thiazol-2-yl}amino)-4-oxobutyl]-L-glutamic acid], for which, at PI3Kγ (human), the IC50 is greater than 1 µM.
For `Cc1nc(NC(=O)CCCN[C@@H](C(=O)O)c2ccccc2)sc1-c1ccc(Cl)c(S(C)(=O)=O)c1` [Example 34, (2R)-{[4-({5-[4-Chloro-3-(methylsulfonyl)phenyl]-4-methyl-1,3-thiazol-2-yl}amino)-4-oxobutyl]amino}(phenyl)acetic acid], the IC50 on PI3Kγ (human) is greater than 1 µM.
`Cc1nc(NC(=O)CCCN[C@H](C(=O)O)c2ccccc2)sc1-c1ccc(Cl)c(S(C)(=O)=O)c1` [Example 35, (2S)-{[4-({5-[4-Chloro-3-(methylsulfonyl)phenyl]-4-methyl-1,3-thiazol-2-yl}amino)-4-oxobutyl]amino}(phenyl)acetic acid]: the IC50 at PI3Kγ (human) was greater than 1 µM.
Consider `Cc1nc(NC(=O)CCCN[C@@H](Cc2ccccc2)C(=O)O)sc1-c1ccc(Cl)c(S(C)(=O)=O)c1` [Example 36, N-[4-({5-[4-Chloro-3-(methylsulfonyl)phenyl]-4-methyl-1,3-thiazol-2-yl}amino)-4-oxobutyl]-L-phenylalanine], for which the IC50 at PI3Kγ (human) was greater than 1 µM.
Consider `Cc1nc(NC(=O)CCCN[C@@H](COC(C)(C)C)C(=O)O)sc1-c1ccc(Cl)c(S(C)(=O)=O)c1` [Example 37, O-tert-Butyl-N-[4-({5-[4-chloro-3-(methylsulfonyl)phenyl]-4-methyl-1,3-thiazol-2-yl}amino)-4-oxobutyl]-L-serine], for which the IC50 on PI3Kγ (human) is greater than 1 µM.
On to `Cc1nc(NC(=O)CCN[C@@H](C)C(=O)O)sc1-c1ccc(Cl)c(S(C)(=O)=O)c1` [Example 38, N-[3-({5-[4-Chloro-3-(methylsulfonyl)phenyl]-4-methyl-1,3-thiazol-2-yl}amino)-3-oxopropyl]-L-alanine], for which the IC50 on PI3Kγ (human) was greater than 1 µM.
For `Cc1nc(NCCCN[C@@H](CC(C)C)C(=O)O)sc1-c1ccc(Cl)c(S(C)(=O)=O)c1` [Example 39, N-[3-({5-[4-Chloro-3-(methylsulfonyl)phenyl]-4-methyl-1,3-thiazol-2-yl}amino)propyl]-L-leucine], at PI3Kγ (human), the IC50 was greater than 1 µM.
On the same count and under the same terms, next, `Cc1nc(NCC2CCC(N[C@@H](CC(C)C)C(=O)O)CC2)sc1-c1ccc(Cl)c(S(C)(=O)=O)c1` (stereo partly drawn) [Example 40, N-{4-[({5-[4-Chloro-3-(methylsulfonyl)phenyl]-4-methyl-1,3-thiazol-2-yl}amino)methyl]cyclohexyl}-L-leucine]: greater than 1 µM; `CC(=O)Nc1nc(C)c(-c2ccc(Cl)c(S(=O)(=O)N[C@@H](C)C(=O)O)c2)s1` [Example 41, N-{[5-(2-Acetamido-4-methyl-1,3-thiazol-5-yl)-2-chlorophenyl]sulfonyl}-L-alanine]: greater than 1 µM; `CC(=O)Nc1nc(C)c(-c2ccc(Cl)c(S(=O)(=O)N[C@@H](COC(C)(C)C)C(=O)O)c2)s1` [Example 42, N-{[5-(2-Acetamido-4-methyl-1,3-thiazol-5-yl)-2-chlorophenyl]sulfonyl}-O-tert-butyl-L-serine]: greater than 1 µM.
On to `CC(=O)Nc1nc(C)c(-c2ccc(Cl)c(S(=O)(=O)NCCN[C@@H](CC(C)C)C(=O)O)c2)s1` [Example 43, N-[2-({[5-(2-Acetamido-4-methyl-1,3-thiazol-5-yl)-2-chlorophenyl]sulfonyl}amino)ethyl]-L-leucine], for which the IC50 on PI3Kγ (human) is greater than 1 µM.
The same measure, in the same setting: as for `CC(=O)Nc1nc(C)c(-c2ccc(Cl)c(S(=O)(=O)N[C@@H](CO)C(=O)O)c2)s1` [Example 44, N-{[5-(2-Acetamido-4-methyl-1,3-thiazol-5-yl)-2-chlorophenyl]sulfonyl}-L-serine], the figure is greater than 1 µM; as for `Cc1nc(NC(=O)CCCN[C@@H](CO)C(=O)O)sc1-c1ccc(Cl)c(S(C)(=O)=O)c1` [Example 45, N-[4-({5-[4-Chloro-3-(methylsulfonyl)phenyl]-4-methyl-1,3-thiazol-2-yl}amino)-4-oxobutyl]-L-serine], greater than 1 µM.
